For data set [1], the system named is Saccharomyces cerevisiae SZMC 0644. As for the experimental part: (§1) Susceptibility tests were performed in low ionic strength broth medium (LCM: 0.5% glucose, 0.25% yeast extract, 0.0125% peptone (w/v)) and in RPMI 1640 medium (Sigma-Aldrich, St Louis, MO, USA) supplemented with 0.03% (w/v) L-glutamine and buffered to pH 7.0 with 0.165 M 4-morpholinopropanesulfonic acid (Sigma-Aldrich, St Louis, MO, USA).
(§2) Antifungal susceptibility tests were performed with nNFAP2, rNFAP2, and sNFAP2 and its peptide fragments in LCM medium against yeast isolates (10^5 cells ml^−1) according to the broth microdilution method described by Tóth et al. ([2016]). Final drug concentration ranged from 25 to 0.098 μg ml^−1 for rNFAP2 and sNFAP2, and from 100 to 6.25 μg ml^−1 for the synthetic peptide fragments. The rNFAP2 was tested against nine yeast isolates, while the sNFAP2 and the synthetic peptide fragments against C. albicans ATCC 10231, C. krusei CBS 573, C. parapsilosis CBS 604, and S. cerevisiae SZMC 0644.
(§3) LCM plates were incubated at 30°C, while RPMI 1640 plates at 35°C for 48 h without shaking, then the absorbance (OD620) was measured with a microtiter plate reader (SPECTROstar Nano, BMG Labtech, Ortenberg, Germany) after resuspension of the cultures with pipette. The absorbance of the untreated control cultures was referred to 100% growth in each case.
(§4) All susceptibility tests were repeated at least two times in three replicates.

Data set [2] has as its system Candida parapsilosis CBS 604. As for the experimental part:
as §1, §2, §3, §4

For data set [3], the system named is Candida albicans ATCC 10231. As for the experimental part:
as §1, §2, §3, §4

In another data set the test system is Candida krusei CBS 573. As for the experimental part: as §1, §2, §3, §4
The test system of data set [4] is C. albicans ATCC 10231 cells. In words: Propidium iodide (PI) staining, plasma membrane disruption. Format: cell-based, Candida albicans. As to conditions: treatment at MIC in LCM, 10 min, 30°C; 5 μg ml^−1 PI; fluorescence microscopy. As for the experimental part:
After the treatment, cells were washed with LCM, and then stained with 5 μg ml^−1 PI for 10 min at room temperature in the dark, and then they were washed again with LCM and resuspended in final volume of 100 μl LCM. Cells treated with 70% (v/v) ethanol for 10 min at 4°C were used as positive staining control. Untreated cells were used as negative staining control.
Yeast cells were visualized by light and fluorescence microscopy (Carl Zeiss Axiolab LR 66238C; Zeiss, Oberkochen, Germany) and photographed with a microscope camera (Zeiss AxioCam ERc 5s; Zeiss, Oberkochen, Germany).

Data set [5] in a line: Thermal unfolding followed by ECD spectroscopy. The format is physicochemical. As for the experimental part:
ECD spectroscopic measurements were performed using a Jasco-J815 spectropolarimeter (JASCO Corporation, Tokyo, Japan), in the far-UV range (185–260 nm). Protein samples were dissolved in pure H2O in approximately 0.1 mg ml^−1 concentration and measured in a 0.1 cm pathlength quartz cuvette. First, ECD spectra of samples were recorded at 25°C with a scan speed of […]. […] The system was allowed to equilibrate for 1 min before measurements were taken at each temperature point.
The obtained melting curves were fitted with an inverse sigmoidal function of which inflection point designated the melting temperature (Tm) of the native protein structure.
ECD spectra were also recorded at 95°C, the final temperature of the thermal unfolding experiments, then samples were allowed to cool and measured again after 5 min of equilibration at 25°C. The reported spectra are accumulations of 10 scans, from which the similarly recorded, corresponding solvent spectrum was subtracted. Data are given as molar ellipticities. Accurate protein sample concentrations for the corrections of ECD spectra were determined using analytical RP-HPLC.

The mark [6] stands for this setting: LCM, 10^5 cells ml^−1, 48 h, 30°C, MIC = growth ≤ 5% (OD620).

Converted amounts (≈) assume the structure as drawn. Like-named read-outs stand apart in the source and are kept apart here. Ends that are not written are not given here. Peptide text beside a SMILES is read from it. A value given as a limit tells only on which side of the number the result lay.

As to `CC[C@H](C)[C@H](NC(=O)[C@H](CS)NC(=O)[C@H](CC(N)=O)NC(=O)[C@H](CC(C)C)NC(=O)[C@H](CCC(N)=O)NC(=O)CNC(=O)CNC(=O)[C@H](CCC(N)=O)NC(=O)[C@H](Cc1c[nH]c2ccccc12)NC(=O)[C@H](CCC(=O)O)NC(=O)[C@H](CS)NC(=O)[C@H](CCCCN)NC(=O)CNC(=O)[C@H](CO)NC(=O)[C@@H](NC(=O)[C@@H](NC(=O)[C@H](CCCCN)NC(=O)[C@H](CO)NC(=O)[C@H](CCCCN)NC(=O)[C@H](CC(=O)O)NC(=O)[C@H](CO)NC(=O)[C@@H]1CCCN1C(=O)CNC(=O)[C@H](CO)NC(=O)[C@H](Cc1c[nH]cn1)NC(=O)[C@H](Cc1ccc(O)cc1)NC(=O)[C@@H](N)CCCCN)C(C)C)[C@@H](C)CC)C(=O)N[C@@H](C)C(=O)N[C@H](C(=O)O)[C@@H](C)O` [Fr-1] (H-KYHSGPSDKSKVISGKCEWQGGQLNCIAT-OH; N-terminus and C-terminus assumed), the minimal inhibitory concentration (MIC) (in general, the least concentration at which growth counts as inhibited) in data set [1] (SZMC 0644, 48 h) is 100 µg/mL (≈ 32 µM); in data set [2] (CBS 604, 48 h), over 100 µg/mL; in data set [3] (ATCC 10231, 48 h) it was over 100 µg/mL; against Candida krusei CBS 573 (CBS 573, 48 h), 100 µg/mL (≈ 32 µM).

On to `CC[C@H](C)[C@H](N)C(=O)N[C@@H](C)C(=O)N[C@H](C(=O)N[C@@H](CO)C(=O)N1CCC[C@H]1C(=O)N[C@@H](Cc1ccc(O)cc1)C(=O)N[C@@H](Cc1ccc(O)cc1)C(=O)N[C@@H](C)C(=O)N[C@@H](CS)C(=O)N[C@@H](CC(N)=O)C(=O)N[C@@H](CS)C(=O)N1CCC[C@H]1C(=O)N[C@@H](CC(N)=O)C(=O)N[C@@H](CC(N)=O)C(=O)N[C@@H](CS)C(=O)N[C@@H](CCCCN)C(=O)N[C@@H](Cc1c[nH]cn1)C(=O)N[C@@H](CCCCN)C(=O)N[C@@H](CCCCN)C(=O)NCC(=O)N[C@@H](CO)C(=O)NCC(=O)N[C@@H](CS)C(=O)O)[C@@H](C)O` [Fr-2] (H-IATSPYYACNCPNNCKHKKGSGC-OH; N-terminus and C-terminus assumed), for which the “Plasma membrane disruption (PI staining)” value in data set [4] is “prompt plasma membrane disruption effect”.

For the compound `CC[C@H](C)[C@H](N)C(=O)N[C@@H](C)C(=O)N[C@H](C(=O)N[C@@H](CO)C(=O)N1CCC[C@H]1C(=O)N[C@@H](Cc1ccc(O)cc1)C(=O)N[C@@H](Cc1ccc(O)cc1)C(=O)N[C@@H](C)C(=O)N[C@@H](CS)C(=O)N[C@@H](CC(N)=O)C(=O)N[C@@H](CS)C(=O)N1CCC[C@H]1C(=O)O)[C@@H](C)O` [Fr-6] (H-IATSPYYACNCP-OH; N-terminus and C-terminus assumed), the MIC is over 100 µg/mL in data set [1] (SZMC 0644, 48 h); over 100 µg/mL in data set [2] (CBS 604, 48 h); over 100 µg/mL in data set [3] (ATCC 10231, 48 h); over 100 µg/mL in the data set on Candida krusei CBS 573 (CBS 573, 48 h).

On to `CC[C@H](C)[C@H](N)C(=O)N[C@@H](C)C(=O)NCC(=O)N[C@@H](C)C(=O)N[C@@H](Cc1c[nH]cn1)C(=O)N[C@@H](CCCCN)C(=O)N[C@@H](CS)C(=O)N[C@@H](CCCCN)C(=O)N1CCC[C@H]1C(=O)N[C@@H](CS)C(=O)N[C@@H](Cc1ccc(O)cc1)C(=O)NCC(=O)N[C@@H](Cc1ccc(O)cc1)C(=O)N[C@@H](CCCCN)C(=O)N[C@H](C(=O)N[C@@H](CC(N)=O)C(=O)N[C@@H](CO)C(=O)N[C@@H](CS)C(=O)N[C@@H](CS)C(=O)N[C@@H](CC(N)=O)C(=O)N[C@@H](CO)C(=O)N1CCC[C@H]1C(=O)N[C@@H](CC(N)=O)C(=O)O)[C@@H](C)O` [Sh-Fr-2] (H-IAGAHKCKPCYGYKTNSCCNSPN-OH; N-terminus and C-terminus assumed), for which the “Plasma membrane disruption (PI staining)” value in data set [4] is “prompt plasma membrane disruption effect”.

“IATSPYYACNCPNNCKHKKGSGCKYHSGPSDKSKVISGKCEWQGGQLNCIAT (disulfide (positions not given here)) [sNFAP2]”: the MIC was 3.125 µg/mL in data set [1] (setting [6]), 1.56 µg/mL in data set [2] (setting [6]), 6.25 µg/mL in data set [3] (setting [6]) and 12.5 µg/mL against Candida krusei CBS 573 (setting [6]). Also, the thermal denaturation reversibility result in data set [5] (ECD at 95°C, then re-measured after cooling, 5 min at 25°C) is “reversible”. Further, the “Tm (melting temperature of the native protein structure)” value in data set [5] (ECD at 228 nm, 25 to 95°C at 1°C min^−1, approx. 0.1 mg ml^−1 in H2O, inflection of sigmoidal fit) came to 74.94 °C. Moreover, in data set [5] (thermal unfolding followed by ECD), the “native fold remains intact up to” value is “approximately 70 °C”.

As to KYHSGPSDKSKVIS [Fr-5], the MIC in data set [1] (SZMC 0644, 48 h) was over 100 µg/mL; in data set [2] (CBS 604, 48 h) it was over 100 µg/mL; in data set [3] (ATCC 10231, 48 h), over 100 µg/mL; against Candida krusei CBS 573 (CBS 573, 48 h), over 100 µg/mL.

The values are drawn from article PMC5845869 (Frontiers in Microbiology, 2018).
